Experimental data published in article PMC5691054, “An unexpected protein interaction promotes drug resistance in leukemia” (Nature Communications, 2017).
Entries after “also recorded” stand apart in the source; their conditions may differ. Like-named read-outs stand apart in the source and are kept apart here.

Key:
[1] = system: murine hematopoietic progenitor cells (HPC); assay: Hematopoietic progenitor cell serial replating in methylcellulose
Method: In these experiments, littermates were used as controls. Bone marrow from 8- to 12-week-old female virgin C57/BL6 mice were harvested. Progenitors were enriched by incubating with lineage-PE antibodies (CD4, CD8, Mac1, Gr1, NK1.1, B220, and Ter119) and separated using AutoMACS Pro (Miltenyi). Hematopoetic progenitor cells were cultured in the presence of recombinant murine SCF (rmSCF), IL3 (rmIL3), and IL6 (rmIL6) (Peprotech; all 50 ng/ml) for 48 h before transduction on RetroNectin (Takara) coated plates. Retroviral supernatant containing media was produced by transient transfection of HEK293T cells with MSCV based retroviral plasmids encoding either MYCN-ires-YFP or MPP1-ires-CFP as previously described[35]. Forty-eight hours post transduction, cells were harvested, sorted for either YFP or CFP expression, and plated on methylcellulose containing IL3, IL6, SCF, and EPO (Stem Cell Technologies). Colonies were counted after 7 days growth at 37 °C, harvested, and replated.

[2] = target: T1, ABCC4-PDZ motif and MPP1 interaction (Homo sapiens, UniProt O15439+Q00013); assay: biochemical; conditions: for IC50: 10 concentrations 3.5 nM to 70 μM
T1 sequence (Q00013 1-466): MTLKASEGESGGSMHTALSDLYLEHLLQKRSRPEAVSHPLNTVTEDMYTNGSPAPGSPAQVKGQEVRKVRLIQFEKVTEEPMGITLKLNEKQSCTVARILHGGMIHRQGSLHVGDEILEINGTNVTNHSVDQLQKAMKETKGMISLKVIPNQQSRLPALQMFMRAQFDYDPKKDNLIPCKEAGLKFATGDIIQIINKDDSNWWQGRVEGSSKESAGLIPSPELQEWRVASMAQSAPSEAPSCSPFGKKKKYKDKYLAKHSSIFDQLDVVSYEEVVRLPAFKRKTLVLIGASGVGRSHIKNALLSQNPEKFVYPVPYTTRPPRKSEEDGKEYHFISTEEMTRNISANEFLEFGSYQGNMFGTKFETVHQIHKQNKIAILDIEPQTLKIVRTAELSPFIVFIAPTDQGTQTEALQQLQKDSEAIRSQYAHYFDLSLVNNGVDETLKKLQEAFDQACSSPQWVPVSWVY
T1 sequence (O15439 1301-1325): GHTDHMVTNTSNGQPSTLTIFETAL

Meg01 cells = assay: 6MP cytotoxicity in Meg01 cells; format: cell-based, Human; conditions: Antimycin A 10 nM, in words
Method: HEK293 cells transfected with ABCC4 or ABCC4ΔC in the presence or absence of MPP1, MO7e, and Meg01 cells were treated with 10 concentrations of 6MP, ranging from 1 to 1000 µM, for 96 h. Cell viability analysis was determined using CellTiter Glo (Promega). Where applicable, cell penetrating peptides conjugated to the PDZ-binding motif of ABCC4 (labeled either ABCC4-PDZ or ABCC4ΔC) were added to the cells at 20 μM. Media was changed daily and new ABCC4-PDZ/ABCC4ΔC peptide and 6MP was added. IC50 values were calculated using GraphPad Prism.
(§1) The Meg01, MO7e, and ABCC4 KO MO7e cell lines were plated at 1500 cells per well in a 96-well plate. Cells were treated with 10 concentrations of Antimycin A (Santa Cruz) ranging from 0.01 to 1000 μM. Cell viability was determined using CellTiter Glo (Promega). Meg01, MO7e, and ABCC4 KO MO7e cells in the presence or absence of 10 nM Antimycin A were treated with 10 concentrations of 6MP, ranging from 1 to 1000 µM, for 96 h. Cell viability analysis was determined using CellTiter Glo. IC50 values were calculated using GraphPad Prism.

[3] = Antimycin A cytotoxicity in MO7e and ABCC4 KO MO7e cells; format: cell-based, Human; conditions: human, 0.01 to 1000 μM, CellTiter Glo, triplicate
Method: as §1, with “Meg01, MO7e, and ABCC4 KO MO7e cells in the presence or absence of 10 nM Antimycin A were treated with 10 concentrations of 6MP, ranging from 1 to 1000 µM, for 96 h.” left out

MO7e cells = assay: Cytarabine cytotoxicity in MO7e cells; format: cell-based, Human; conditions: in words
Method: MO7e cells were seeded at 1500 cells per well of a 96-well plate. Cells were then treated with Cytarabine at increasing concentrations ranging from 0.5 to 500 μM for 4 h in serum-free media. Cells were washed three times with PBS and replaced with fresh complete media for 68 h. Cell viability analysis was determined using CellTiter Glo. Where applicable, cells were treated with 10 nM Antimycin A. IC50 values were calculated using GraphPad Prism.

[4] = system: mitochondrial function of MO7e and ABCC4 KO MO7e cells; assay: Mitochondrial function (relative ATP, TMRE, MitoTracker Green); format: cell-based, Human; conditions: 10 nM
Method: WT and ABCC4 KO MO7e cells were treated with DMSO or 10 nM Antimycin A before incubation with TMRE or MitoTracker Green (Life Technologies) for 15 min. After incubation, cells were analyzed with BD Biosciences flow cytometer and mean fluorescence intensity was calculated. Relative ATP amounts were determined by the CellTiter Glo Assay.

[5] = system: ABCC4 plasma membrane localization in HEK293 cells expressing MPP1 and GFP-ABCC4; assay: ABCC4 plasma membrane localization (confocal microscopy); format: cell-based, Human; conditions: in words; confocal microscopy
Method: Peptides containing or lacking the ABCC4-PDZ motif were fused with the cell penetrating HIV-TAT peptide. These peptides were tested for their effect on ABCC4 plasma membrane localization. HEK293 cells were transfected with MPP1 and GFP-ABCC4 and the ER protein, calreticulin. The plasma membrane was counter-stained with wheat-germ-agglutinin (WGA) labeled with Alexa647 after treatment with either ABCC4-PDZ or ABCC4ΔC peptide.
HEK293 cells were seeded on chambered coverglass slides (LAB-TEK) 48 h before transfection with plasmid DNA (250 ng) encoding pAc-GFP-ABCC4 or ABCC4ΔC and pCal plasmid encoding the ER resident protein calreticulin conjugated to RFP (Origene). Transfection was performed using Lipofectamine 2000 as per the manufacturer’s instructions. Immediately prior to visualizing cells, cells were counterstained with the plasma membrane marker wheat-germ agglutinin (WGA) conjugated to Alexa-647 (Invitrogen). All confocal microscopy images were acquired on a 3i Marianas system configured with an Yokagowa CSU-X spinning disk confocal microscope utilizing a ×63 Zeiss objective, using the 488 (GFP), 561 (RFP), and 660 (far red) laser lines.

CCCCCC[C@H]1C(=O)O[C@H](C)[C@H](NC(=O)c2cccc(NC=O)c2O)C(=O)O[C@@H](C)[C@@H]1OC(=O)CC(C)C [Antimycin A]
effect on MPP1-driven methylcellulose replating ([1]; HPC transduced with MPP1, Antimycin A 10 nM, triplicate): blocked replating of MPP1 overexpressing HSC; also recorded: attenuated | effect on colony formation of normal hematopoietic progenitors ([1]; normal hematopoietic progenitors, Antimycin A 10 nM (peer review file)): did not effect; also recorded: does not reduce the | IC50 ([2]; 500 nM B-ABCC4, 5 nM His-S-MPP1, 0.7% DMSO, read-out: IC50 for complex disruption (TR-FRET)): ~0.003 µM | IC50 ([2]; figure value, 500 nM B-ABCC4, 5 nM His-S-MPP1, triplicate, read-out: IC50 for disruption of MPP1 and ABCC4 interaction (TR-FRET)): 0.0039 µM | TR-FRET dose response / disruption of interaction ([2]; in words): the most potent | effect of Antimycin A on 6MP sensitivity (Meg01 cells): sensitized to 6MP by Antimycin A (10 nM) | IC50 ([3]; MO7e ABCC4 KO cells, MO7e ABCC4 KO): 1.7 µM | IC50 ([3]; MO7e cells, MO7e): 2.2 µM | effect of Antimycin A on cytarabine sensitivity (MO7e cells; MO7e vs. MO7e-ABCC4 knockout, Antimycin A 10 nM): specifically sensitized MO7e cells to Cytarabine, but not MO7e-ABCC4 knockout cells; also recorded: specifically sensitizes ABCC4 expressing MO7e cells, but not ABCC4 KO cells | effect of co-treatment on IC50 for cytarabine (MO7e cells; peer review file): reduce the IC50 for cytarabine | relative ATP ([4]; CellTiter Glo, triplicate): Equal relative | effect on mitochondrial function ([4]; in words): does not selectively affect the mitochondrial; also recorded: minimal effect on mitochondria; also recorded: not exclusively disruptive to mitochondrial function in cells lacking or containing ABCC4 | effect on ABCC4 plasma membrane localization [5]: ABCC4 relocalized from the plasma membrane to the cytosol; also recorded: causes ABCC4 to relocalize from the plasma membrane
